Test results: patent US9315493B2, “Phenylpyridine derivative and drug containing same” (KOWA COMPANY, LTD., priority 2011, dated 2016)

Tests used:
[1] = target: angiotensin II type 1 receptor (Oryctolagus cuniculus (Rabbit), UniProt P34976); test: Angiotensin II antagonistic activity in isolated rabbit blood vessels (angiotensin II-induced contraction of thoracic aorta ring); details: test compound 0.1 μM, angiotensin II 10 nM-induced contraction, read-out: Rate (%) of inhibiting angiotensin II activity at concentration of 0.1 μM
Experimental: By using a specimen of isolated rabbit blood vessels, antagonistic activity of the compounds of the invention against angiotensin II type 1 receptor was calculated from a dose-response curve of angiotensin II-induced blood vessel contraction. Specifically, the specimen of thoracic aorta ring of a rabbit (New Zealand White: male, 2.4 to 3.0 kg) was suspended in a rmagnus bath filled with Krebs-Henseleite buffer (composition: 118 mM NaCl, 4.7 mM KCl, 2.55 mM CaCl2, 1.18 mM MgSO4, 1.18 mM KH2PO4, 24.88 mM NaHCO3, and 11.1 mM D-glucose), and angiotensin II (10 n M)-induced contraction was obtained in the presence of each test compound (1 n mol/L to 10 μmol/L). During the measurement, the inside temperature of the magnus bath was maintained at 37° C. and the bath was continuously ventilated with a sufficient amount of mixed gas (95% O2 and 5% CO2). The angiotensin II-induced contraction was converted into a relative value (%) that is based on the angiotensin II (0.1 μM)-induced contraction in the absence of the test compound.

human PPARγ2 = human PPARγ2 (Homo sapiens (Human), UniProt P37231); test: PPARγ activation effect, Gal4-PPARγ2 LBD luciferase transfection assay in COS7 cells; format: cell-based; details: Gal4-human PPARγ2 LBD chimera, luciferase reporter; for EC50: 16 hours, rosiglitazone = 100%
Experimental: The agonistic activity of the compounds of the invention on PPARγ was measured based on the transfection assay using COS7 cells (DS Pharma Biomedical Co., Ltd., Osaka, Japan), which are the cell line derived from the kidney of the African green monkey. COS7 cells were cultured under 5% CO2 concentration, and DMEM medium containing 10% fetal bovine serum, glutamic acid, and antibiotics was used as a medium.
As an expression vector, a chimera in which DNA binding domain of Gal4, which is a yeast transcription factor, and ligand binding domain of human PPARγ2 are fused, i.e., a fused product between the amino acids 1 to 147 of Gal4 transcription factor and the amino acids 182 to 505 of human PPARγ2, was used. Furthermore, as a reporter vector, a firefly luciferase containing five copies of Gal4 recognition sequence in the promoter region was used. Plasmid transfection to the cells was performed according to a method which uses jetPEI (trade name, manufactured by Funakoshi Co., Ltd., Tokyo, Japan). Furthermore, β-galactosidase expression vector was employed as an internal standard.
After the transfection into the cells, the medium was replaced with a DMEM medium (containing 1% serum) added with the test compound, and the cells were further cultured for 16 hours. After that, the luciferase activity and β-galactosidase activity in the cell lysis solution were measured.
Meanwhile, for the present test, dimethylsulfoxide (DMSO) was used for dissolution and dilution of the test compounds, and during the cell treatment, the DMSO concentration in DMEM medium (containing 1% serum) was adjusted to 0.1%. As a positive compound, rosiglitazone (trade name, manufactured by ALEXIS Corporation, Switzerland) was used. The percentage (%) of the luciferase activity of the each test compound (1 to 30 μmol/L) was calculated when the luciferase activity of rosiglitazone (3 to 10 μmol/L) is 100% and the luciferase activity in the absence of the test compound is 0%. The 50% effective concentration of the test compound (EC50, 50% effect concentration) was calculated by using SAS Preclinical Package Ver 5.0 (trade name, manufactured by SAS institute Japan Co., Tokyo, Japan), which is a statistical analysis program.

Sequence of human PPARγ2 (P37231 182-505): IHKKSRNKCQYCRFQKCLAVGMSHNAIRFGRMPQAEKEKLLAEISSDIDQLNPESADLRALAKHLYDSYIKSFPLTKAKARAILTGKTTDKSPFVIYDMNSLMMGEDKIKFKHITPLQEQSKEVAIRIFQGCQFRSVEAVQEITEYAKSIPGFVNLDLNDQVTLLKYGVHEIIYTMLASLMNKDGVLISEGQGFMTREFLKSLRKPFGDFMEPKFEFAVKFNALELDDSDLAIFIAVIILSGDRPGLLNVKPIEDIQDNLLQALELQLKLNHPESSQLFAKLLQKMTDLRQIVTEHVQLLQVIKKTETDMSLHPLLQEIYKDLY
Sequence of angiotensin II type 1 receptor (P34976 whole entry, the tested form may be a part): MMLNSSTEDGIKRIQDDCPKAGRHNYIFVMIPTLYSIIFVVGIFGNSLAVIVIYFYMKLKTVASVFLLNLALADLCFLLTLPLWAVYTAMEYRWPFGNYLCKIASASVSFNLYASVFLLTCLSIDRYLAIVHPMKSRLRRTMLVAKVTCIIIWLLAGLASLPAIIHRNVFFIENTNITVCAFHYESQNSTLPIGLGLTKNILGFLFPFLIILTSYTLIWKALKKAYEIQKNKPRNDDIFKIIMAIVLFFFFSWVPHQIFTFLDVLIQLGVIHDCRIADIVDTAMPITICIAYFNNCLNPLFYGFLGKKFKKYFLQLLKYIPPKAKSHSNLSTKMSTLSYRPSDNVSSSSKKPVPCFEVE

| Compound | inhibition at 0.1 µM [1] [%] | % MAX vs Rosiglitazone (maximum activity strength relative to the maximum activity of rosiglitazone) (human PPARγ2) [%] | EC50 (human PPARγ2) [µM] |
| --- | --- | --- | --- |
| CCCc1nc(C(C)C)n(-c2ncc(OCC)cn2)c(=O)c1Cc1ccc(-c2ccccc2-c2noc(=O)[nH]2)nc1 [Example 40, 3-{2-{5-{[1-(5-ethoxypyrimidin-2-yl)-2-isopropyl-6-oxo-4-propyl-1,6-dihydropyrimidin-5-yl]methyl}pyridin-2-yl}phenyl}-1,2,4-oxadiazol-5(4H)-one] | 68.3 | 69 | 0.4 |
| CCCc1nc(C2CC2)n(-c2ncc(OCC)cn2)c(=O)c1Cc1ccc(-c2ccccc2-c2noc(=O)[nH]2)nc1 [Example 41, 3-{2-{5-{[2-cyclopropyl-1-(5-ethoxypyrimidin-2-yl)-6-oxo-4-propyl-1,6-dihydropyrimidin-5-yl]methyl}pyridin-2-yl}phenyl}-1,2,4-oxadiazol-5(4H)-one] | 89.9 | 65 | 0.56 |
| CCCCCc1nc(C(C)C)n(-c2ncc(OCC)cn2)c(=O)c1Cc1ccc(-c2ccccc2-c2noc(=O)[nH]2)nc1 [Example 42, 3-{2-{5-{[1-(5-ethoxypyrimidin-2-yl)-2-isopropyl-6-oxo-4-pentyl-1,6-dihydropyrimidin-5-yl]methyl}pyridin-2-yl}phenyl}-1,2,4-oxadiazol-5(4H)-one] | – | 53 | 0.65 |
| CCCCCc1nc(C2CC2)n(-c2ncc(OCC)cn2)c(=O)c1Cc1ccc(-c2ccccc2-c2noc(=O)[nH]2)nc1 [Example 43, 3-{2-{5-{[2-cyclopropyl-1-(5-ethoxypyrimidin-2-yl)-6-oxo-4-pentyl-1,6-dihydropyrimidin-5-yl]methyl}pyridin-2-yl}phenyl}-1,2,4-oxadiazol-5(4H)-one] | – | 42 | 0.59 |
| CCCc1nc2c(C)cc(-c3nc4ccccc4n3C)cc2n1Cc1ccc(-c2ccccc2C(=O)O)cc1 [telmisartan, reference compound] | 85.3 | – | – |
